From publication PMC10648875 (Antimicrobial Agents and Chemotherapy, 2023)
Read-outs that look alike come from different tables or passages of the source.

Experiments:
CTX-M-15 = CTX-M-15 (Escherichia coli, UniProt Q9EXV5); assay: Ki app of β-lactamase inhibition, purified enzyme; assay type: biochemical; settings: 10-minute preincubation; nitrocefin substrate
Procedure: (§1) The majority of purified β-lactamase enzymes used in the study were either expressed and purified internally ([35]) or obtained from Emerald Biostructures (Bainbridge Island, WA, USA). L1 enzyme was purified as described in reference ([36]).
(§2) Enzymes were mixed with BLIs at concentrations varying from 160 to 0.0027 µM in 50-mM Na-phosphate pH7.0, 0.1-mg/mL bovide serum albumin (BSA) (buffer A; 20-µM ZnCl2 was also added for all metalloenzymes) and incubated for 10 minutes at 37°C. Nitrocefin (50 µM) (10 µM for SHV-12) or 100 µM of imipenem (prewarmed at 37°C for 10 minutes) was added, and substrate cleavage profiles were recorded at 37°C at 490 nm every 10 seconds for 10 minutes or at 294 nm every 30 seconds for 1 hour for nitrocefin and imipenem, respectively. […] Ki app values (Ki for metalloenzymes) were calculated by the method of Waley ([37]).

OXA-23 = OXA-23 (Acinetobacter baumannii, UniProt Q9L4P2); assay: Ki app of β-lactamase inhibition, purified enzyme; assay type: biochemical; settings: 10-minute preincubation; nitrocefin substrate
Procedure: as §1, §2

KPC-2 = KPC-2 (Klebsiella pneumoniae, UniProt Q9F663); assay: Ki app of β-lactamase inhibition, purified enzyme; assay type: biochemical; settings: 10-minute preincubation; nitrocefin substrate
Procedure: as §1, §2

CTX-M-14 = CTX-M-14 (Escherichia coli, UniProt Q9L5C7); assay: Ki app of β-lactamase inhibition, purified enzyme; assay type: biochemical; settings: 10-minute preincubation; nitrocefin substrate
Procedure: as §1, §2

P99 = P99 (Enterobacter cloacae, UniProt P05364); assay: Ki app of β-lactamase inhibition, purified enzyme; assay type: biochemical; settings: 10-minute preincubation; nitrocefin substrate; read-out: Ki app
Procedure: as §1, §2

NDM-1 = NDM-1 (Klebsiella pneumoniae, UniProt C7C422); assay: biochemical
Procedure: as §1, §2

OXA-48 = OXA-48 (Klebsiella pneumoniae, UniProt Q6XEC0); assay: Ki app of β-lactamase inhibition, purified enzyme; assay type: biochemical, Enterobacterales; settings: 10-minute preincubation; nitrocefin substrate
Procedure: as §1, §2

VIM-1 = VIM-1 (Pseudomonas aeruginosa, UniProt A0A0F7KYQ8); assay: Ki of metallo-β-lactamase inhibition, purified enzyme; assay type: biochemical; settings: 10-minute preincubation; nitrocefin substrate
Procedure: as §1, §2

IMP-1 = IMP-1 (Serratia marcescens, UniProt P52699); assay: as above; assay type: biochemical
Procedure: as §1, §2

SHV-12 = SHV-12 (Klebsiella pneumoniae, UniProt P0AD64, E235K/G234S/L31Q); assay: Ki app of β-lactamase inhibition, purified enzyme; assay type: biochemical
Procedure: as §1, §2

[1] = tested on: P. aeruginosa BAA-3197 (PA5257), KPC-2; assay: MIC, reference strain; assay type: cell-based; settings: Pseudomonas aeruginosa, BAA3197; KPC-2; BLI at the fixed concentration in brackets; read-out: MIC
[2] = tested on: Escherichia coli NCTC 13353 (ECM7514), CTX-M-15; assay: MIC, reference strain; assay type: cell-based; settings: Escherichia coli, NCTC13353
Procedure: (§3) Other BL/BLI combinations were tested at their recommended BLI concentrations. MIC values for the partner antibiotics and BLIs alone were also determined (Table 2; Table S1). All investigational and marketed BLIs enhanced the potency of antibiotics according to their spectrum of inhibition. MIC values against CLSI-approved QC strains were within acceptable ranges for drugs and combinations tested (Table 3).
(§4) Isolates were tested for antimicrobial susceptibility using the broth microdilution methodology per CLSI M07 (2018) guidelines ([40]). JMI Laboratories produced frozen-form 96-well panels with cation-adjusted Mueller-Hinton broth as the testing medium. Current CLSI quality assurance practices were followed when performing the susceptibility tests. MIC values were validated by concurrently testing the following CLSI-recommended ([27]) QC reference strains: E. coli NCTC 13353 (CTX-M-15), Klebsiella pneumoniae ATCC BAA-2814 (KPC-3), Klebsiella pneumoniae ATCC BAA-1705 (KPC-2), and K. pneumoniae ATCC 700603 (SHV-18). The inoculum density during susceptibility testing was monitored by bacterial colony counts. Where applicable, QC ranges for tested reference strains were those approved or published by the CLSI ([27]). Meropenem was purchased from Carbosynth; ceftolozane was synthesized at Acme Bioscience, Palo Alto, CA, USA; all other antibiotics were from Sigma Aldrich. Xeruborbactam was synthesized at Qpex Biopharma, San Diego, CA, USA. Avibactam was purchased from eNovation, Chemicals LLC, Bridgewater, NJ, USA. Vaborbactam was synthesized at The Medicines Company, San Diego, CA. Relebactam, taniborbactam, and relebactam were synthesized at Acme Bioscience.

[3] = tested on: K. pneumoniae ATCC BAA-2814 (KP1074), KPC-3; assay: MIC, reference strain; assay type: cell-based; settings: Klebsiella pneumoniae, ATCCBAA2814; KPC-3; BLI at the fixed concentration in brackets; read-out: MIC
Procedure: as §3
as §4, with “([27]).” for “([27]). Meropenem was purchased from Carbosynth; ceftolozane was synthesized at Acme Bioscience, Palo Alto, CA, USA; all other antibiotics were from Sigma Aldrich. Xeruborbactam was synthesized at Qpex Biopharma, San Diego, CA, USA. Avibactam was purchased from eNovation, Chemicals LLC, Bridgewater, NJ, USA. Vaborbactam was synthesized at The Medicines Company, San Diego, CA. Relebactam, taniborbactam, and relebactam were synthesized at Acme Bioscience.”

[4] = tested on: Klebsiella pneumoniae ATCC 700603 (KPM2881), SHV-18; assay: MIC, reference strain; assay type: cell-based; settings: Klebsiella pneumoniae, ATCC700603; SHV-18; BLI at the fixed concentration in brackets; read-out: MIC
Procedure: as §3
as §4, with “([27]).” for “([27]). Meropenem was purchased from Carbosynth; ceftolozane was synthesized at Acme Bioscience, Palo Alto, CA, USA; all other antibiotics were from Sigma Aldrich. Xeruborbactam was synthesized at Qpex Biopharma, San Diego, CA, USA. Avibactam was purchased from eNovation, Chemicals LLC, Bridgewater, NJ, USA. Vaborbactam was synthesized at The Medicines Company, San Diego, CA. Relebactam, taniborbactam, and relebactam were synthesized at Acme Bioscience.”

[5] = tested on: K. pneumoniae CDC 0135 (KP1291), VIM-1; assay: MIC, reference strain; assay type: cell-based; settings: Klebsiella pneumoniae, BLI at the fixed concentration in brackets, read-out: MIC
Procedure: as §3
as §4, with “([27]).” for “([27]). Meropenem was purchased from Carbosynth; ceftolozane was synthesized at Acme Bioscience, Palo Alto, CA, USA; all other antibiotics were from Sigma Aldrich. Xeruborbactam was synthesized at Qpex Biopharma, San Diego, CA, USA. Avibactam was purchased from eNovation, Chemicals LLC, Bridgewater, NJ, USA. Vaborbactam was synthesized at The Medicines Company, San Diego, CA. Relebactam, taniborbactam, and relebactam were synthesized at Acme Bioscience.”

[6] = tested on: E. coli CDC 0069 (EC1106), NDM-1; assay: MIC, reference strain; assay type: cell-based; settings: Escherichia coli, BLI at the fixed concentration in brackets, read-out: MIC
Procedure: as §3
as §4, with “([27]).” for “([27]). Meropenem was purchased from Carbosynth; ceftolozane was synthesized at Acme Bioscience, Palo Alto, CA, USA; all other antibiotics were from Sigma Aldrich. Xeruborbactam was synthesized at Qpex Biopharma, San Diego, CA, USA. Avibactam was purchased from eNovation, Chemicals LLC, Bridgewater, NJ, USA. Vaborbactam was synthesized at The Medicines Company, San Diego, CA. Relebactam, taniborbactam, and relebactam were synthesized at Acme Bioscience.”

[7] = tested on: K. pneumoniae ATCC BAA-1705 (KPM1123), KPC-2; assay: MIC, reference strain; assay type: cell-based; settings: Klebsiella pneumoniae, ATCCBAA1705; KPC-2; BLI at the fixed concentration in brackets; read-out: MIC
Procedure: as §3
as §4, with “([27]).” for “([27]). Meropenem was purchased from Carbosynth; ceftolozane was synthesized at Acme Bioscience, Palo Alto, CA, USA; all other antibiotics were from Sigma Aldrich. Xeruborbactam was synthesized at Qpex Biopharma, San Diego, CA, USA. Avibactam was purchased from eNovation, Chemicals LLC, Bridgewater, NJ, USA. Vaborbactam was synthesized at The Medicines Company, San Diego, CA. Relebactam, taniborbactam, and relebactam were synthesized at Acme Bioscience.”

[8] = tested on: ESBL-producing Enterobacterales; assay: organism not typed; assay type: cell-based; settings: ESBL (N = 521); xeruborbactam and vaborbactam fixed 8 mg/L, all other BLIs 4 mg/L
[9] = tested on: ESBL-producing and carbapenem-resistant Enterobacterales (All, N = 1028); assay: organism not typed; assay type: cell-based; settings: All (N = 1028); xeruborbactam and vaborbactam fixed 8 mg/L, all other BLIs 4 mg/L
[10] = tested on: carbapenem-resistant Enterobacterales (subset of 507 isolates); assay: organism not typed; assay type: cell-based; settings: xeruborbactam and vaborbactam fixed 8 mg/L, all other BLIs 4 mg/L
[11] = CTX-M-15, BLI at the fixed concentration in brackets, read-out: MIC

IMP-1, sequence (P52699 19-246 limits assumed): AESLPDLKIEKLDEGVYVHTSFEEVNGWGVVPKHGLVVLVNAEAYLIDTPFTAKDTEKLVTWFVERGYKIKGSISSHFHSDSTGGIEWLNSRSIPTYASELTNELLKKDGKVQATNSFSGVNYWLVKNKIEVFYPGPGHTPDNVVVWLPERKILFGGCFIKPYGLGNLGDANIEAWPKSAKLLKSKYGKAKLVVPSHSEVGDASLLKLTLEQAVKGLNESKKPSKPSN
SHV-12, sequence (P0AD64 22-286 L31Q/G234S/E235K): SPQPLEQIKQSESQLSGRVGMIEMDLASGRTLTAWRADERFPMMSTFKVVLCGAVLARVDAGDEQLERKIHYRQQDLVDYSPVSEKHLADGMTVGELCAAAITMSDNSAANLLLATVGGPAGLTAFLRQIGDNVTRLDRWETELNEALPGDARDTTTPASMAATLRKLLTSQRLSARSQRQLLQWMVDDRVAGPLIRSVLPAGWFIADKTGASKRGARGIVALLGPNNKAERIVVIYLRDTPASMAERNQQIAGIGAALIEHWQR
CTX-M-15, sequence (Q9EXV5 entry or part of it): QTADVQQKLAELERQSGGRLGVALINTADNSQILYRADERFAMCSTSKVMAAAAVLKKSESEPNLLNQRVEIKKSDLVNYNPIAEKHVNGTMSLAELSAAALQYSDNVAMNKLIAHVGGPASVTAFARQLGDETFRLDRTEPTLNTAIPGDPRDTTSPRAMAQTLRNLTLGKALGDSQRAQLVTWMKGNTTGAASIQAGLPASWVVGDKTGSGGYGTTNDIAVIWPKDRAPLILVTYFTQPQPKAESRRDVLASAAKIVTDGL
P99, sequence (P05364 21-381): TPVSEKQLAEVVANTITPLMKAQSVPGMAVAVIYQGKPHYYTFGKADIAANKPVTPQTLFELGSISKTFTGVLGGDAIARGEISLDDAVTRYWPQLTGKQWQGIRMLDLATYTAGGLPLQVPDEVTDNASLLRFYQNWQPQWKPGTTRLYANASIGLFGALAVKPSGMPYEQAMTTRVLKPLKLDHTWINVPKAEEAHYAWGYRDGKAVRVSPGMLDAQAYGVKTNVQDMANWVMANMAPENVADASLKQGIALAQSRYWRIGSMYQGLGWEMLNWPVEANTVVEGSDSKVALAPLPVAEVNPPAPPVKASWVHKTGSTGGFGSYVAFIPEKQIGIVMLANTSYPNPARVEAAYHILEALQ
CTX-M-14, sequence (Q9L5C7 entry or part of it): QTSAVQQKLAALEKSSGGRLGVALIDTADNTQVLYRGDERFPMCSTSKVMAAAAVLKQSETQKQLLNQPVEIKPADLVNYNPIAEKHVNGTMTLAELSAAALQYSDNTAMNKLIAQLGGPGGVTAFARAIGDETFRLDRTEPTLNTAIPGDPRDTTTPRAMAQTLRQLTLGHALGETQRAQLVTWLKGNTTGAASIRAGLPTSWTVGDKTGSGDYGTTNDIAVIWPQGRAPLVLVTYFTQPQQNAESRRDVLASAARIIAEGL
NDM-1, sequence (C7C422 29-270 limits assumed): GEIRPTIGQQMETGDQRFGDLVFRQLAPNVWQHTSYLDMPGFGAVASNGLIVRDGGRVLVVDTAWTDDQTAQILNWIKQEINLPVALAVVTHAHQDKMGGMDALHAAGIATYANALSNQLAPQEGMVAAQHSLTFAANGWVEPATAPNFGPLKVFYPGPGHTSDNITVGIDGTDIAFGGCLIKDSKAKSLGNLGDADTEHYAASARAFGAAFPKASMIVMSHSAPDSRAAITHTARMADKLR
OXA-23, sequence (Q9L4P2 18-273): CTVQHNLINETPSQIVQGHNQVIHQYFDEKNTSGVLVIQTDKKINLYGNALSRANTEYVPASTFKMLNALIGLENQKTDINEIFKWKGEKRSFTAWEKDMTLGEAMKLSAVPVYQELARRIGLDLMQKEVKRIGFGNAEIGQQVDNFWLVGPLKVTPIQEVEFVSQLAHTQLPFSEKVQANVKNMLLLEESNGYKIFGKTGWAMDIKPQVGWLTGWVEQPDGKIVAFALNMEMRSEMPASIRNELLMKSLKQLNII
KPC-2, sequence (Q9F663 25-293 limits assumed): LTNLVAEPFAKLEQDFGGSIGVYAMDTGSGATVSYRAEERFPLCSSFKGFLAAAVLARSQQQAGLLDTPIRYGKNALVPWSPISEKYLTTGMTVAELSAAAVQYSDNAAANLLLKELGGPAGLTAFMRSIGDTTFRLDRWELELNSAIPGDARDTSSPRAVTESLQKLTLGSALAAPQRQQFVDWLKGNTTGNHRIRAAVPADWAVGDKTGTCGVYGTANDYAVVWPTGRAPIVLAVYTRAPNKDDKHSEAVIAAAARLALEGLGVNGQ
OXA-48, sequence (Q6XEC0 23-265 limits assumed): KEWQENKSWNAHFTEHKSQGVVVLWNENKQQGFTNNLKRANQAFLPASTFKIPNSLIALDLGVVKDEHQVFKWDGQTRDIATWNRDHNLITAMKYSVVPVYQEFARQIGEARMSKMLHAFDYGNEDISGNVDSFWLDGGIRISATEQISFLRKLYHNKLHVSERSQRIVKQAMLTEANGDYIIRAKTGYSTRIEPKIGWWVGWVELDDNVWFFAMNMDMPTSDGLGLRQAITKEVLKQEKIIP

Compound	Ki (CTX-M-15)	Ki (CTX-M-14)	Ki (P99)	Ki (NDM-1)	Ki (VIM-1)	Ki (IMP-1)	MIC [1]	MIC [2, 11]	MIC [3]	MIC [4]	MIC [5]	MIC [6]	MIC [7]	other results
CC1=C[C@@H]2CN(C(=O)N2OS(=O)(=O)O)[C@@H]1C(N)=O [Durlobactam, durlobactam]	0.21 ± 0.12 nM	0.37 ± 0.16 nM	0.17 ± 0.08 nM	> 160000 nM	> 160000 nM	> 160000 nM								Ki (OXA-23): 94 ± 32 nM; Ki (KPC-2): 1.7 ± 0.4 nM; Ki (OXA-48): 0.72 ± 0.27 nM
O=C(O)C[C@@H]1CC[C@H](NC(=O)Cc2cccs2)B(O)O1 [Vaborbactam, vaborbactam]						> 160000 nM	> 64 µg/mL	> 64 µg/mL	> 64 µg/mL	> 64 µg/mL	> 64 µg/mL	> 64 µg/mL	> 64 µg/mL	Ki (SHV-12; 10-minute preincubation, nitrocefin substrate, read-out: Ki app): 21 ± 4 nM
O=C(NC1CCNCC1)[C@@H]1CC[C@@H]2CN1C(=O)N2OS(=O)(=O)O [Relebactam, relebactam]	24 ± 1 nM	10 ± 3 nM	14 ± 2 nM	> 160000 nM	> 160000 nM	> 160000 nM	> 64 µg/mL	> 64 µg/mL	> 64 µg/mL	> 64 µg/mL	> 64 µg/mL	> 64 µg/mL	> 64 µg/mL	Ki (SHV-12): 36 ± 6 nM
C[C@@H](O)[C@H]1C(=O)N2C(C(=O)O)=C(S[C@@H]3CN[C@H](C(=O)Nc4cccc(C(=O)O)c4)C3)[C@H](C)[C@H]12 [ETP]														MIC50 [8]: 0.06 µg/mL; MIC90 [8]: 0.5 µg/mL; MIC50 [9]: 4 µg/mL; MIC90 [9]: >32 µg/mL; MIC50 ([10]; CRE (N = 507)): >32 µg/mL; MIC90 ([10]; CRE (N = 507)): >32 µg/mL; MIC50 ([10]; KPC (N = 193)): >32 µg/mL; MIC90 ([10]; KPC (N = 193)): >32 µg/mL; MIC50 ([10]; MBL (N = 168)): >32 µg/mL; MIC90 ([10]; MBL (N = 168)): >32 µg/mL; MIC50 ([10]; Non-CP CRE (N = 50)): >32 µg/mL; MIC90 ([10]; Non-CP CRE (N = 50)): >32 µg/mL; MIC50 ([10]; OXA-48-like (N = 96)): >32 µg/mL; MIC90 ([10]; OXA-48-like (N = 96)): >32 µg/mL
C[C@@H](O)[C@H]1C(=O)N2C(C(=O)O)=C(SCCN=CN)C[C@H]12 [IMP, imipenem]							> 64 µg/mL		64 µg/mL	0.06 µg/mL	8 µg/mL	16 µg/mL	8 µg/mL	MIC [2]: 0.125 µg/mL
